# From ChEMBL document CHEMBL1201862, “PubChem BioAssay data set” (2004)
# The source made the active and inactive calls.
# Tests used:
# Cytochrome P450 3A4 = Cytochrome P450 3A4 (Homo sapiens, UniProt P08684);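 note: CYP3A4 tested as one member of a cytochrome P450 panel screen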
# Cytochrome P450 2C9 = Cytochrome P450 2C9 (Homo sapiens, UniProt P11712)
# Cytochrome P450 1A2 = molecular target: T1, Cytochrome P450 1A2 (Homo sapiens, UniProt P05177);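 note: PubChem cytochrome P450 panel assay, CYP1A2 panel member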
# T1 sequence (P05177 whole entry): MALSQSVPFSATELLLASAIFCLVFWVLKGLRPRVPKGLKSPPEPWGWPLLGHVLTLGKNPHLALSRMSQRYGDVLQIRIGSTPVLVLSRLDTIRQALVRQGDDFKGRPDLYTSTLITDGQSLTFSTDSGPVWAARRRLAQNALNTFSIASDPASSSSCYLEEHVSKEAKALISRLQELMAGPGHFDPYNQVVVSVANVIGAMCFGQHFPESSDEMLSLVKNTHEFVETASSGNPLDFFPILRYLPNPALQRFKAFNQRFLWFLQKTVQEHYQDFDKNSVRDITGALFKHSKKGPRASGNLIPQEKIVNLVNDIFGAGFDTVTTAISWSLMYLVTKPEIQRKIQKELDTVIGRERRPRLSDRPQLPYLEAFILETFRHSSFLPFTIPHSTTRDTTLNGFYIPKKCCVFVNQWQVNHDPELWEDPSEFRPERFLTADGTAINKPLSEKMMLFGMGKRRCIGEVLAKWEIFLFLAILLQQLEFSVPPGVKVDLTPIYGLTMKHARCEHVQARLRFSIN
# Cytochrome P450 2C19 = Cytochrome P450 2C19 (Homo sapiens, UniProt P33261); assay: Cytochrome panel assay with activity outcomes. Panel member name: p450-cyp2c19 Compounds with AC50 equal or less than 10 uM are considered active; assay type: functional; settings: read-out: AC50
# Cytochrome P450 2C19, sequence (P33261 whole entry): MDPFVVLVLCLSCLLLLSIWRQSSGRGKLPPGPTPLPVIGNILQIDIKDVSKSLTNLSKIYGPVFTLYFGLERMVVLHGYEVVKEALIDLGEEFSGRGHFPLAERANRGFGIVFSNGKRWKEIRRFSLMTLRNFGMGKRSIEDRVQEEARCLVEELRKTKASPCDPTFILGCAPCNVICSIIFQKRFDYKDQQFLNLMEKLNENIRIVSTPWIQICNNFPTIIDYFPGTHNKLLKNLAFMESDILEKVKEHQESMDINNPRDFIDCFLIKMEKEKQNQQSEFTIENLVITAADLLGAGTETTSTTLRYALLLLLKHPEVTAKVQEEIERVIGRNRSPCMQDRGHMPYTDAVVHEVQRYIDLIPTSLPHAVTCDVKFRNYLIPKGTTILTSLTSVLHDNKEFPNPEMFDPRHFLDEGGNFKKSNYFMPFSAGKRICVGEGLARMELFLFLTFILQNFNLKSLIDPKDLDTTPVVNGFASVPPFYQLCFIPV
# Cytochrome P450 2D6 = Cytochrome P450 2D6 (Homo sapiens, UniProt P10635);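 note: CYP2D6 member of a cytochrome P450 panel assay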
# Cytochrome P450 2D6, sequence (P10635 whole entry): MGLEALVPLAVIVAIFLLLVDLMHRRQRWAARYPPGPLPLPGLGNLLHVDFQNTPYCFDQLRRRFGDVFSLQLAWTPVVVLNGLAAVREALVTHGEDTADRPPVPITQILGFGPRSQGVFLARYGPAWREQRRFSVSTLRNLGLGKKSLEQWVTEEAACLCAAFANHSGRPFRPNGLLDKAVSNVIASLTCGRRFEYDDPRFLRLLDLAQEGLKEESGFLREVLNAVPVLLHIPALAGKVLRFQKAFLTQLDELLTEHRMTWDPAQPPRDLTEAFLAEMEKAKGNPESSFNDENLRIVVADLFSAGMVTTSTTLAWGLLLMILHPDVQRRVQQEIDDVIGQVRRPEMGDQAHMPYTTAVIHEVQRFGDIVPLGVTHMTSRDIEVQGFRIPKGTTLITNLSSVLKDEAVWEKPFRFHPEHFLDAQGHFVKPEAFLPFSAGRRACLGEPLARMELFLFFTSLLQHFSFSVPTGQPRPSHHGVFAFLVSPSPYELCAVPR
# Protein RecA = molecular target: T2, Protein RecA (Mycobacterium tuberculosis, UniProt P9WHJ3); assay: Fluorescence Cell-Free Homogeneous Dose Retest to Identify Inhibitors of RecA-Intein Splicing Activity. [Related pubchem assays (depositor defined):AID2097, AID2223, AID489010, AID492950]; assay type: functional
# T2 sequence (P9WHJ3 whole entry): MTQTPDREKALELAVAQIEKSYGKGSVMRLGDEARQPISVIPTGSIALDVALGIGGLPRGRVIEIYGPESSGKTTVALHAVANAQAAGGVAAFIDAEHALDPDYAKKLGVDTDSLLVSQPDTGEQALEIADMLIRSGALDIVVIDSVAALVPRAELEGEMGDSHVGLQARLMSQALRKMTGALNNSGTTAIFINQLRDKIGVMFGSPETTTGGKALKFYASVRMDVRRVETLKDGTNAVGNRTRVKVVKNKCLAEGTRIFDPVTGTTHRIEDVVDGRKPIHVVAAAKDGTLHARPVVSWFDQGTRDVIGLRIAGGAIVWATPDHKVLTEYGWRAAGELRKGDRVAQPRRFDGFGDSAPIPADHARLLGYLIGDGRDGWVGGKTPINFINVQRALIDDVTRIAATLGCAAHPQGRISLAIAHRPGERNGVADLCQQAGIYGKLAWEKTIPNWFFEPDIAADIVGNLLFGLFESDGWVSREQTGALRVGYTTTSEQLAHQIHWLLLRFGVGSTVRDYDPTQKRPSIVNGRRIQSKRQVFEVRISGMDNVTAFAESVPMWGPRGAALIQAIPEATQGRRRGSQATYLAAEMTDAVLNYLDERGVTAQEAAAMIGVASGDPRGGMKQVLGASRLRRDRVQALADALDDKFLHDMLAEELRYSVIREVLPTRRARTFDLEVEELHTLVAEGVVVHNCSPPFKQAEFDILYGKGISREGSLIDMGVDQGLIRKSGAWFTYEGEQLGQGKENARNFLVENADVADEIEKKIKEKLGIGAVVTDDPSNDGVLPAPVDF
# [1] = molecular target: T3, Replicative DNA helicase DnaB (Mycobacterium tuberculosis, UniProt P9WMR3); assay: DnaB intein splicing inhibitors, dose response, biochemical, cell-free fluorescence (AID 449749); assay type: functional
# T3 sequence (P9WMR3 whole entry): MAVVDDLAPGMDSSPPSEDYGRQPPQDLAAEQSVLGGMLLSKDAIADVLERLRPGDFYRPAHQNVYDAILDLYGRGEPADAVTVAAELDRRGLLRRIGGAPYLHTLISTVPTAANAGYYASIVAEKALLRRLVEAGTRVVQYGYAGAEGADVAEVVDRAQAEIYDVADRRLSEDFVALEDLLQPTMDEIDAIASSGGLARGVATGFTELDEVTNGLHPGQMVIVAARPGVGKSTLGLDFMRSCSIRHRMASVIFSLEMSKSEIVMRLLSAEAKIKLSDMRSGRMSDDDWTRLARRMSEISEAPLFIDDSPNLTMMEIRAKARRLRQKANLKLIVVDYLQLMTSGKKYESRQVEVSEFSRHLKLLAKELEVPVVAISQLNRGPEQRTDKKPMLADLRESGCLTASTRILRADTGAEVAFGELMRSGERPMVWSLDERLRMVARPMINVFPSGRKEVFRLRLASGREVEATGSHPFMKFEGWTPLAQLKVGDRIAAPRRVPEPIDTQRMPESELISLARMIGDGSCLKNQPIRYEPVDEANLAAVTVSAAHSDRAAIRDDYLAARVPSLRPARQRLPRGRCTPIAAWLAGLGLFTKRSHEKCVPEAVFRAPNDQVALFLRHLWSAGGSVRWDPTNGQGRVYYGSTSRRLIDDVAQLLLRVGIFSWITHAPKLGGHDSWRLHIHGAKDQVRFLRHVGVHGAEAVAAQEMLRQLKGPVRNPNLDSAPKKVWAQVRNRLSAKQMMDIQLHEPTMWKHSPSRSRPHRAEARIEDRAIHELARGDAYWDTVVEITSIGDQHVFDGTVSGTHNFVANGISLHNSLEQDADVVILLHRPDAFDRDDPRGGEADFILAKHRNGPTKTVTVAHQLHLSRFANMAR
# [2] = NIH-3T3 fibroblast cytotoxicity, dose response, cytotoxicity control, cell-based, fluorescence, Alamar Blue, secondary assay (AID 2327); assay type: functional;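 note: NIH-3T3 mouse fibroblasts cultured with fluconazole at 8 µg/mL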
# [3] = Luminescence Cell-Based Dose Response HTS to Identify Activators of Luciferase Translation or Activity in H4 […] Cells. [Related pubchem assays: 1829 (Project Summary), 1814 (Primary HTS)]; assay type: functional
# H4 = assay: Luminescence Cell-Based Dose Response HTS to Identify Activators of 5'UTR Stem-Loop Driven Prion Protein mRNA Translation in H4 Neuroglioblastoma Cells. [Related pubchem assays: 1829 (Project Summary), 1814 (Primary HTS)]; assay type: functional; settings: Homo sapiens
# Streptococcus = assay: Group A Streptococcus viability loss, dose response, counter-screen for streptokinase expression inhibitor project, luminescence, BacTiterGlo (AID 1915); assay type: functional, organism-based;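 note: potency for reduction of bacterial viability or growth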
# [4] = tested on: Streptococcus sp. 'group A'; assay: growth inhibition of control SK(-) GAS strain, dose response, counter-screen for streptokinase expression inhibitor project, luminescence, kanamycin, BacTiterGlo, confirmation (AID 1900); assay type: functional, organism-based
# Cytochrome P450 2C9, sequence (P11712 whole entry): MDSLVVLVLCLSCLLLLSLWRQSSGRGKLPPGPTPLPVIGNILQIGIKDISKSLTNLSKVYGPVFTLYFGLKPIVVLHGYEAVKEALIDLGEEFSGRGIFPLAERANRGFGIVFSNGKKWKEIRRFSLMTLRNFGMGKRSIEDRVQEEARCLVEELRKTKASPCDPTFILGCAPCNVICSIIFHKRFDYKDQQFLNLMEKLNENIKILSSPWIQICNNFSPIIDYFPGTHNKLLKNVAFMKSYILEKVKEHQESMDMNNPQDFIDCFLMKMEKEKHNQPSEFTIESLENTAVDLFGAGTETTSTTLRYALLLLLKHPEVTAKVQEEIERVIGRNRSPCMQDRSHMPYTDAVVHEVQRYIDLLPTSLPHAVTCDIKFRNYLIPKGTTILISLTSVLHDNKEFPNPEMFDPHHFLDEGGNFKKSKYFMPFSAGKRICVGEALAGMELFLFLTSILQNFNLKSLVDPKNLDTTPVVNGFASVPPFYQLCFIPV
# Cytochrome P450 3A4, sequence (P08684 whole entry): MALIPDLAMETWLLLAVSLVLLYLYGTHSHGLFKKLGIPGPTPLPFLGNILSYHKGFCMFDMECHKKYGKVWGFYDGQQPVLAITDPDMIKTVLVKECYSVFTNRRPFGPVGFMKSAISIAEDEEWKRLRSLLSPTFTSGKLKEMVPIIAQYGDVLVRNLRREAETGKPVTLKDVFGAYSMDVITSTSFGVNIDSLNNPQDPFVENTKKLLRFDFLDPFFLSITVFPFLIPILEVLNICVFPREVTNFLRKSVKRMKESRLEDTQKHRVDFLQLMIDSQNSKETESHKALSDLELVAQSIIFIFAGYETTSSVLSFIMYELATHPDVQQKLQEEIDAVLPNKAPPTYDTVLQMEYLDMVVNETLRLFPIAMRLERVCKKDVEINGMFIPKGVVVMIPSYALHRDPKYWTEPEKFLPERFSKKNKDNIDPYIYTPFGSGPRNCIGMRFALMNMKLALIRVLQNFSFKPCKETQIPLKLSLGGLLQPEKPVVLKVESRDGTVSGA
smiles,measurement,setting,value
O=C(NCCOc1nc(N2CCOCC2)nc(N2CCOCC2)n1)Nc1ccccc1,AC50,Cytochrome P450 3A4,22.4 µM (inconclusive)
same,AC50,Cytochrome P450 2C9,15.8 µM (inconclusive)
C[C@@H](C(=O)Nc1ccc2ccccc2c1)[C@@H]1C[C@@]1(C)[C@@H](NC(=O)Oc1ccc(F)cc1)c1ccccc1,AC50,Cytochrome P450 2C9,0.251 µM (inconclusive)
CCCCSc1nc(C)cc(N=C(S)Nc2ccc(OC)cc2)n1,AC50,Cytochrome P450 1A2,4.47 µM (inconclusive)
c1ccc(C[C@@H](c2ccccc2)N2CCCCC2)cc1,AC50,Cytochrome P450 3A4,31.6 µM (inconclusive)
same,AC50,Cytochrome P450 2C19,7.94 µM (inconclusive)
same,AC50,Cytochrome P450 1A2,15.8 µM (inconclusive)
c1ccc(N2CCC3(CCNCC3)CC2)nc1,AC50,Cytochrome P450 3A4,25.1 µM (inconclusive)
same,AC50,Cytochrome P450 2C19,25.1 µM (inconclusive)
same,AC50,Cytochrome P450 2C9,31.6 µM (inconclusive)
Cc1ccc(C)c(Nc2nc3nonc3nc2N2CCOCC2)c1,AC50,Cytochrome P450 2C9,0.355 µM (inconclusive)
CCc1ccc(OCC(=O)NC(=S)Nc2ccc(C)cc2C)c(Br)c1,AC50,Cytochrome P450 3A4,31.6 µM (inconclusive)
same,AC50,Cytochrome P450 2C9,0.631 µM (inconclusive)
same,AC50,Cytochrome P450 1A2,4.47 µM (inconclusive)
CCOc1ccc(N2CC(C(=O)NCc3cccc(C)c3)CC2=O)cc1 (configuration not stated),AC50,Cytochrome P450 1A2,14.1 µM (inconclusive)
CCOC(=O)CSc1nnc(Cc2ccccc2)n1-c1cccc(Cl)c1,AC50,Cytochrome P450 2D6,0.0891 µM (inconclusive)
same,AC50,Cytochrome P450 2C9,39.8 µM (inconclusive)
same,AC50,Cytochrome P450 1A2,25.1 µM (inconclusive)
COC(=O)[C@H](Cc1ccccc1)NC(=O)N1CCN(Cc2ccccc2)CC1,AC50,Cytochrome P450 3A4,14.1 µM (inconclusive)
same,AC50,Cytochrome P450 2C9,0.01 µM (inconclusive)
CC(=O)NC1N=C(C)N(c2ccccc2)C1=O (configuration not stated),EC50,Protein RecA,10.7 µM (active)
same,AC50,[1],4.66 µM (active)
CS(=O)(=O)C1=NSC2=NC(=O)/C(=C\c3ccc(OC(=O)c4ccco4)cc3)C(=N)N21,EC50,Protein RecA,16 µM (active)
same,AC50,[1],> 120 µM (inactive)
C/C(=N\Nc1ccc(Cl)cc1)c1c(O)cc(C)oc1=O,EC50,[2],29.4 µM (active)
O=C(c1cnc(N2CCN(c3ncccn3)CC2)c2ccccc12)N1CCN(c2ccccn2)CC1,AC50,Cytochrome P450 1A2,0.0251 µM (inconclusive)
O=S(=O)(c1ccccc1)N1CCC2(CC1)CN(c1ccccn1)C2,AC50,Cytochrome P450 3A4,12.6 µM (inconclusive)
same,AC50,Cytochrome P450 2C19,10 µM (inconclusive)
same,AC50,Cytochrome P450 2D6,20 µM (inconclusive)
COc1cccc(NC(=O)NCCC2=CCCCC2)c1,EC50,[3],51 µM (active)
same,EC50,H4,0.324 µM (active)
c1ccc(Nc2ncnc3ccc(-c4ccc5c(c4)OCO5)cc23)cc1,AC50,Cytochrome P450 2C9,1.58 µM (inconclusive)
Cc1cc(C)c2c(-n3cccc3)[nH]nc2n1,AC50,Cytochrome P450 2C9,6.31 µM (inconclusive)
O=[N+]([O-])c1ccc(/C=N/Nc2cc(Cl)nc(-c3ccccc3)n2)cc1,AC50,Cytochrome P450 2C9,0.00562 µM (inconclusive)
COc1ccc(C2=Nc3c(c(=O)n(C)c(=O)n3C)C(C(F)(F)F)(C(F)(F)F)N2)cc1,AC50,Cytochrome P450 3A4,14.1 µM (inconclusive)
same,AC50,Cytochrome P450 1A2,11.2 µM (inconclusive)
CCCC(=O)Nc1c2c(nn1-c1ccc(C)cc1C)CSC2,AC50,Cytochrome P450 2D6,28.2 µM (inconclusive)
same,AC50,Cytochrome P450 1A2,12.6 µM (inconclusive)
CCC(C)NC(=O)CCS(=O)(=O)c1ccc(Br)s1 (configuration not stated),AC50,Cytochrome P450 2D6,28.2 µM (inconclusive)
same,AC50,Cytochrome P450 2C9,12.6 µM (inconclusive)
O=C(CN(c1cccc(Br)c1)S(=O)(=O)c1ccccc1)N/N=C/c1cc([N+](=O)[O-])ccc1O,EC50,Protein RecA,> 380 µM (inactive)
same,EC50,Streptococcus,0.587 µM (active)
same,AC50,[1],> 380 µM (inactive)
same,EC50,[4],0.364 µM (active)
O=C(CSc1nnc(Cc2ccccc2)o1)Nc1cccc(F)c1,EC50,Protein RecA,86.1 µM (active)
same,AC50,[1],71.3 µM (active)
COc1ccc(C2C(C#N)=C(N)N(Nc3ccccc3)C3=C2C(=O)CC(C)(C)C3)cc1C (configuration not stated),AC50,Cytochrome P450 1A2,39.8 µM (inconclusive)
Cc1ccc(-n2c(C)c(C)c3c(NCCCO)ncnc32)cc1,EC50,[3],119 µM (active)
same,EC50,H4,> 120 µM (not active)
Cc1nn2c(NCC(C)C)c3c(nc2c1-c1ccccc1)CCC3,AC50,Cytochrome P450 3A4,10 µM (inconclusive)
same,AC50,Cytochrome P450 2C9,0.708 µM (inconclusive)
COc1ccc(S(=O)(=O)N(CC(=O)N2CCCC2)Cc2ccccc2)cc1,AC50,Cytochrome P450 2C9,1 µM (inconclusive)
COc1cccc(-c2[nH]nc3c2C(c2ccsc2)C(C#N)=C(N)O3)c1 (configuration not stated),EC50,Protein RecA,0.52 µM (active)
same,AC50,[1],2 µM (active)
CN(C)c1ncc2nc(-c3ccc(F)cc3)c(=O)n(CCC#N)c2n1,AC50,Cytochrome P450 2D6,0.501 µM (inconclusive)
same,AC50,Cytochrome P450 1A2,1.26 µM (inconclusive)
COC(=O)c1cc2c(ccn2-c2ccc(F)cc2)n1C(C)C,AC50,Cytochrome P450 3A4,25.1 µM (inconclusive)
same,AC50,Cytochrome P450 2C9,22.4 µM (inconclusive)
CC(C)On1c(SC(C)C)nc2ccccc2c1=O,AC50,Cytochrome P450 2C19,28.2 µM (inconclusive)
same,AC50,Cytochrome P450 2C9,31.6 µM (inconclusive)
FC(F)(F)c1cc(-c2ccco2)nc(NCc2cccs2)n1,AC50,Cytochrome P450 2C19,1.26 µM (inconclusive)
same,AC50,Cytochrome P450 2D6,20 µM (inconclusive)
O=C1CC/[N+](=C\c2ccccc2Cl)[N-]1,EC50,Protein RecA,4.02 µM (active)
same,AC50,[1],7.23 µM (active)
CN(C)C(=S)N=Nc1[nH]c2ccccc2c1O,EC50,Protein RecA,6.07 µM (active)
same,AC50,[1],10.7 µM (active)
CCCCNC(=O)C(=O)c1ccccc1NC(C)=O,AC50,Cytochrome P450 2C19,22.4 µM (inconclusive)
same,AC50,Cytochrome P450 1A2,39.8 µM (inconclusive)
O=C(NCCCN1CCCCCC1)[C@@H](c1ccccc1)C1CCCCC1,AC50,Cytochrome P450 1A2,31.6 µM (inconclusive)
Cc1cccc(Nc2ccccc2C(=O)OCC(=O)NCc2ccco2)c1C,AC50,Cytochrome P450 2C9,11.2 µM (inconclusive)
CN1CCN(c2ncnc3ccc(-c4cccc(NS(C)(=O)=O)c4)cc23)CC1,AC50,Cytochrome P450 3A4,12.6 µM (inconclusive)
same,AC50,Cytochrome P450 1A2,25.1 µM (inconclusive)
